Assay [1] has as its target T1, HCV NS3 protease (full-length NS3/NS4A-2 complex) (Hepatitis C virus genotype 1a, UniProt P27958).
T1 construct: Recombinant E. coli or Baculovirus full-length NS3 was diluted to 3.33 μM with assay buffer; host or cells: E. coli or baculovirus (insect cells)
Put plainly: NS3 Inhibition Assay (NS3-NS4 protease assay, RETS1 substrate). The settings on record: NS3/NS4A-2, RETS1 substrate, 10 minutes pre-incubation. The format is biochemical. The method, then: NS3 Complex Formation with NS4A-2.
Recombinant E. coli or Baculovirus full-length NS3 was diluted to 3.33 μM with assay buffer and the material was transferred to an eppendorf tube and placed in a water bath in a 4° C. refrigerator. The appropriate amount of NS4A-2 diluted to 8.3 mM in assay buffer was added to an equal the volume of NS3 above (conversion factor—3.8 mg/272 μL assay buffer). The material was transferred to an eppendorf tube and placed in water bath in a 4° C. refrigerator.
After equilibration to 4° C., equal volumes of NS3 and NS4A-2 solutions were combined in an eppendorf tube, mixed gently with a manual pipettor, and incubated for 15 minutes in the 4° C. water bath. Final concentrations in the mixture are 1.67 μM NS3, 4.15 mM NS4A-2 (2485-fold molar excess NS4A-2).
After 15 minutes at 4° C., the NS3/NS4A-2 eppendorf tube was removed and placed in a room temperature water bath for 10 minutes. NS3/NS4A-2 was aliquoted at appropriate volumes and stored at −80° C. (E. coli NS3 run at 2 nM in assay, aliquot at 25 μL. BV NS3 run at 3 nM in assay, aliquot at 30 μL).
Step a. Sample compounds were dissolved to 10 mM in DMSO then diluted to 2.5 mM (1:4) in DMSO. Typically, compounds were added to an assay plate at 2.5 mM concentration, yielding upon dilution a starting concentration of 50 μM in the assay inhibition curve. Compounds were serial diluted in assay buffer to provide test solutions at lower concentrations.
Step 1. The E. coli. NS3/NS4A-2 was diluted to 4 nM NS3 (1:417.5 of 1.67 μM stock−18 μL 1.67 μM stock+7497 μL assay buffer). The BV NS3/NS4A-2 was diluted to 6 nM NS3 (1:278.3 of 1.67 μM stock−24 μL 1.67 μM stock+6655 μL assay buffer).
Step. 2. Using the manual multichannel pipettor, and being careful not to introduce bubbles into the plate, 50 μL assay buffer was added to wells A01-H01 of a black Costar 96-well polypropylene storage plate.
Step 3. Using the manual multichannel pipettor, and being careful not to introduce bubbles into the plate, 50 μL of diluted NS3/NS4A-2 from step 1 was added to wells A02-H12 of the plate in step 2.
Step 4. Using the manual multichannel pipettor, and being careful not to introduce bubbles into the plate, 25 μL of the wells in drug dilution plate in step a was transferred to corresponding wells in assay plate in step 3. The tips on the multichannel pipettor were changed for each row of compounds transferred.
Step 5. Using the manual multichannel pipettor, and being careful not to introduce bubbles into the plate, the contents of the wells from the assay plate in step 4 were mixed by aspirating and dispensing 35 μL of the 75 μL in each well five times. The tips on multichannel pipettor were changed for each row of wells mixed.
Step 6. The plate was covered with a polystyrene plate lid, and the plate from step 5 containing NS3 protease and sample compounds was pre-incubated 10 minutes at room temperature.
While the plate from step 6 is pre-incubating, the RETS1 substrate was diluted in a 15 mL polypropylene centrifuge tube. The RETS1 substrate was diluted to 8 μM (1:80.75 of 646 μM stock−65 μL 646 μM stock+5184 μL assay buffer).
After the plate in step 6 finished pre-incubating, and using the manual multichannel, 25 μL of substrate was added to all wells on the plate. The contents of the wells of the plate were quickly mixed, as in step 5, mixing 65 μL of the 100 μL in the wells.
The plate was read in kinetic mode on the Molecular Devices SpectraMax Gemini XS plate reader. Reader settings: Read time: 30 minutes, Interval: 36 seconds, Reads: 51, Excitation λ: 335 nm, Emission λ: 495 nm, cutoff: 475 nm, Automix: off, Calibrate: once, PMT: high, Reads/well: 6, Vmax pts: 21 or 28/51 depending on length of linearity of reaction
IC50s are determined using a four parameter curve fit equation, and converted to Ki's using the following Km's: • Full-length E. coli NS3-2.03 μM • Full-length BV NS3-1.74 μM • where Ki=IC50/(1+[S]/Km))

Assay [2] concerns HCV sub-genomic replicon (I377/NS3-3′) in HuH-7 hepatoma cells (GS4.3). Put plainly: Quantitation by ELISA of NPTII in the HCV sub-genomic replicon, GS4.3. In kind it is cell-based. The following applies: Hepatitis C virus, GS4.3 replicon cells, 72 h incubation. The procedure:
The HCV sub-genomic replicon (I377/NS3-3′, accession No. AJ242652), stably maintained in HuH-7 hepatoma cells, was created by Lohmann et al. Science 285: 110-113 (1999). The replicon-containing cell culture, designated GS4.3, was obtained from Dr. Christoph Seeger of the Institute for Cancer Research, Fox Chase Cancer Center, Philadelphia, Pa.
GS4.3 cells were maintained at 37° C., 5% CO2, in DMEM (Gibco 11965-092) supplemented with L-glutamine 200 mM (100×) (Gibco25030-081), non-essential amino acids (NEAA)(Biowhittaker 13-114E), heat-inactivated (HI) Fetal Bovine Serum(FBS)(Hyclone SH3007.03) and […] geneticin (G418)(Gibco 10131-035). Cells were sub-divided 1:3 or 4 every 2-3 days.
24 h prior to the assay, GS4.3 cells were collected, counted, and plated in 96-well plates (Costar 3585) at 7500 cells/well in 100 μL standard maintenance medium (above) and incubated in the conditions above. To initiate the assay, culture medium was removed, cells were washed once with PBS (Gibco 10010-023) and 90 μl Assay Medium (DMEM, L-glutamine, NEAA, 10% HI FBS, no G418) was added. Inhibitors were made as a 10× stock in Assay Medium, (3-fold dilutions from 10 μM to […] final concentration, final DMSO concentration 1%), 10 μL were added to duplicate wells, plates were rocked to mix, and incubated as above for 72 h.
An NPTII Elisa kit was obtained from AGDIA, Inc. (Compound direct ELISA test system for Neomycin Phosphotransferase II, PSP 73000/4800). Manufacturer's instructions were followed, with some modifications. 10×PEB-1 lysis buffer was made up to include 500 μM PMSF (Sigma P7626, 50 mM stock in isopropanol). After 72 h incubation, cells were washed once with PBS and 150 μL PEB-1 with PMSF was added per well. Plates were agitated vigorously for 15 minutes, room temperature, and then frozen at −70° C. Plates were thawed, lysates were mixed thoroughly, and 100 μL were applied to an NPTII Elisa plate. A standard curve was made. Lysate from DMSO-treated control cells was pooled, serially diluted with PEB-1 with PMSF, and applied to duplicate wells of the ELISA plate, in a range of initial lysate amount of 150 μL. In addition, 100 μL buffer alone was applied in duplicate as a blank. Plates were sealed and gently agitated at room temperature for 2 h. Following capture incubation, the plates were washed 5×300 μL with PBS-T (0.5% Tween-20, PBS-T was supplied in the ELISA kit). For detection, a 1× dilution of enzyme conjugate diluent MRS-2 (5×) was made in PBS-T, into which 1:100 dilutions of enzyme conjugates A and B were added, as per instructions. Plates were resealed, and incubated with agitation, covered, room temperature, for 2 h. The washing was then repeated and 100 μL of room temperature TMB substrate was added. After approximately 30 minutes incubation (room temperature, agitation, covered), the reaction was stopped with 50 μL 3M sulfuric acid. Plates were read at 450 nm on a Molecular Devices Versamax plate reader.
Inhibitor effect was expressed as a percentage of DMSO-treated control signal, and inhibition curves were calculated using a 4-parameter equation: y=A+4B−A)/(1+((C/x)̂D))), where C is half-maximal activity or EC50.
A general note: ELISA stands for enzyme-linked immunosorbent assay.

T1 sequence (P27958 1027-1657, one chain of several): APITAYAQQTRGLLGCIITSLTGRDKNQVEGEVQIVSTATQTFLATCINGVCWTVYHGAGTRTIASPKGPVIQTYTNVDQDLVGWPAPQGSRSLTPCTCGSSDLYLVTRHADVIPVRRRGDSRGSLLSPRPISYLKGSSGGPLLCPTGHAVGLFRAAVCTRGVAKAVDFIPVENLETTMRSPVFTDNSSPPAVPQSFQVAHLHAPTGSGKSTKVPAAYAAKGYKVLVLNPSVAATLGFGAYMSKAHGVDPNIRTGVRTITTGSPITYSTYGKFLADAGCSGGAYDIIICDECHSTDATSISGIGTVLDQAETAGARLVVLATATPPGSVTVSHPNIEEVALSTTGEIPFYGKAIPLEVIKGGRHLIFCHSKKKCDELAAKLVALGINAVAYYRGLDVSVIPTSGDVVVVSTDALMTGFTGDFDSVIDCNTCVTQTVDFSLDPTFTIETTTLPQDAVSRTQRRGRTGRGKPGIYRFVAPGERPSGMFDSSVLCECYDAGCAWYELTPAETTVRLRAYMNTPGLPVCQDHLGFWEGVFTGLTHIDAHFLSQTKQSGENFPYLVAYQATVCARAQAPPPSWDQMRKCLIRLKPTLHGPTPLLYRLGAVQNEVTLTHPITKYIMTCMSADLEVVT

On to `CC[C@@H]1C[C@@]12NC(=O)[C@@H]1C[C@H](CN1C(=O)[C@@H](N)C(C)(C)C)Oc1nc3c(cccc3n1C(C)C)C1=NC(C(C)C)=C(CCCCCCCCS(=O)(=O)NC2=O)S1` [Compound 110], for which the IC50 (commonly the concentration that gives 50% inhibition) in assay [1] was no less than 100 nM. Also, the EC50 (commonly the concentration that produces a half-maximal response) in assay [2] is no less than 100 nM.
`CC[C@@H]1C[C@@]12NC(=O)[C@@H]1C[C@H](CN1C(=O)[C@@H](NC(=O)OC(C)(C)C)C(C)(C)C)Oc1nc3c(cccc3n1C(C)C)CCCC/C=C/CCCC1(CC1)S(=O)(=O)NC2=O` [Compound 111] registered an IC50 in assay [1] of 10 to 100 nM. In assay [2], the EC50 is no less than 100 nM.
In turn, `CC[C@@H]1C[C@@]12NC(=O)[C@@H]1C[C@H](CN1C(=O)[C@@H](NC(=O)OC(C)(C)C)C(C)(C)C)Oc1nc3c(cccc3n1C(C)C)CCCCCCCCCC1(CC1)S(=O)(=O)NC2=O` [Compound 112] came in with an IC50 in assay [1] of no more than 10 nM. Besides, the concentration giving a half-maximal response (EC50) in assay [2] was no less than 100 nM.
The matching figures for `CC[C@@H]1C[C@@]12NC(=O)[C@@H]1C[C@H](CN1C(=O)[C@@H](N)C(C)(C)C)Oc1nc3c(cccc3n1C(C)C)CCCCCCCCCC1(CC1)S(=O)(=O)NC2=O` [Compound 113]: 10 to 100 nM and no less than 100 nM.

The values are drawn from patent publication US20120094897A1, “NOVEL INHIBITORS OF HEPATITIS C VIRUS REPLICATION” (InterMune, Inc., priority 2010, published 2012).
